Experiments:
[1] = 101 kPa, Liquid; for viscosity: Capillary tube (Ostwald / Ubbelohde) method
[2] = refractive index (Na D-line) (dimensionless); details: 101.33 kPa, Liquid, Standard Abbe refractometry
[3] = xn = mol fraction of the nth substance listed; details: 101 kPa, Liquid; for viscosity: Capillary tube (Ostwald / Ubbelohde) method
[4] = refractive index (Na D-line) (dimensionless); xn = mol fraction of the nth substance listed; details: 101 kPa, Liquid, Standard Abbe refractometry

CCC(O)CC [3-pentanol]
Details	mass density, 298.15 K [kg/m3]	mass density, 308.15 K [kg/m3]	mass density, 318.15 K [kg/m3]	refractive index, 298.15 K	refractive index, 308.15 K	refractive index, 318.15 K	viscosity, 298.15 K [mPa·s]	viscosity, 308.15 K [mPa·s]	viscosity, 318.15 K [mPa·s]
[1]	815.79	806.91	797.66	–	–	–	4.625	2.864	1.902
[2]	–	–	–	1.4047	1.4029	1.3981	–	–	–

CCC(C)=O [butanone]
Details	mass density, 298.15 K [kg/m3]	mass density, 308.15 K [kg/m3]	mass density, 318.15 K [kg/m3]	refractive index, 298.15 K	refractive index, 308.15 K	refractive index, 318.15 K	viscosity, 298.15 K [mPa·s]	viscosity, 308.15 K [mPa·s]	viscosity, 318.15 K [mPa·s]
[1]	799.76	789.21	778.52	–	–	–	0.391	0.361	0.334
[2]	–	–	–	1.375	1.37	1.3657	–	–	–

CCC(C)=O [butanone] + CCC(O)CC
x1 = 1
Details	mass density, 298.15 K [kg/m3]	mass density, 308.15 K [kg/m3]	mass density, 318.15 K [kg/m3]	refractive index, 298.15 K	refractive index, 308.15 K	refractive index, 318.15 K	viscosity, 298.15 K [mPa·s]	viscosity, 308.15 K [mPa·s]	viscosity, 318.15 K [mPa·s]
[3]	799.76	789.21	778.52	–	–	–	0.391	0.361	0.334
[4]	–	–	–	1.375	1.37	1.3657	–	–	–

CCC(C)=O [butanone] + CCCC(C)O
x1 = 1
Details	mass density, 298.15 K [kg/m3]	mass density, 308.15 K [kg/m3]	mass density, 318.15 K [kg/m3]	refractive index, 298.15 K	refractive index, 308.15 K	refractive index, 318.15 K	viscosity, 298.15 K [mPa·s]	viscosity, 308.15 K [mPa·s]	viscosity, 318.15 K [mPa·s]
[3]	799.76	789.21	778.52	–	–	–	0.391	0.361	0.334
[4]	–	–	–	1.375	1.37	1.3657	–	–	–

CCCCCO [pentan-1-ol]
Details	mass density, 298.15 K [kg/m3]	mass density, 308.15 K [kg/m3]	mass density, 318.15 K [kg/m3]	refractive index, 298.15 K	refractive index, 308.15 K	refractive index, 318.15 K	viscosity, 298.15 K [mPa·s]	viscosity, 308.15 K [mPa·s]	viscosity, 318.15 K [mPa·s]
[1]	810.85	803.45	795.9	–	–	–	3.54	2.658	2.288
[2]	–	–	–	1.4068	1.4031	1.3996	–	–	–

CCCCCO [pentan-1-ol] + CCC(C)=O
x2 = 0
Details	mass density, 298.15 K [kg/m3]	mass density, 308.15 K [kg/m3]	mass density, 318.15 K [kg/m3]	refractive index, 298.15 K	refractive index, 308.15 K	refractive index, 318.15 K	viscosity, 298.15 K [mPa·s]	viscosity, 308.15 K [mPa·s]	viscosity, 318.15 K [mPa·s]
[3]	810.85	803.45	795.9	–	–	–	3.54	2.658	2.288
[4]	–	–	–	1.4068	1.4031	1.3996	–	–	–

CCCC(C)O (stereo not drawn) [pentan-2-ol]
Details	mass density, 298.15 K [kg/m3]	mass density, 308.15 K [kg/m3]	mass density, 318.15 K [kg/m3]	refractive index, 298.15 K	refractive index, 308.15 K	refractive index, 318.15 K	viscosity, 298.15 K [mPa·s]	viscosity, 308.15 K [mPa·s]	viscosity, 318.15 K [mPa·s]
[1]	805.3	797	788.37	–	–	–	3.478	2.361	1.772
[2]	–	–	–	1.4032	1.399	1.395	–	–	–
